From patent US20080175888A1, “Combination Therapy Comprising Actinidia and Steroids and Uses Thereof” (priority 2005, published 2008)

Tested on: production of IL-13 and IFN-γ by OVA-stimulated mouse splenocytes
Test: Cytokine production in OVA-stimulated splenocyte cultures, ELISA (Example 3)
Type: cell-based
Conditions: 3 days exposure in vitro, FIG. 5A/5B
Procedure: The purpose of this study was to assess the ability of A. arguta extracts that originate from plant parts other than the fruit, or from alternative preparations of the fruit (i.e., other than the extracts described in U.S. Patent Publication No. 2004/0037909, supra), to modulate cytokine production (IL-13 and IFNγ) in splenocyte cultures derived from ovalbumin-sensitized mice, using ELISA analysis. The following samples (prepared as described above) were tested: water extracts of the stem, root, and bark of A. arguta, prepared as described in Example 1; “boiled” fresh fruit preparations; the fruit juice concentrate prepared as described in Example 1; FD001 (large scale equivalent of PG102T) prepared as described in Example 1; FD001 powder prepared as described in Example 1 (used for clinical trials described below); a room temperature water extract of the dried A. arguta fruit; the EtOAc extract prepared as described in Example 1; and aqueous remainder, also described in Example 1. In addition, the activity of three known immunosuppressive compounds, cyclosporin, dexamethasone, and quercetin were evaluated as controls.
Preparation of the splenocytes was performed in a manner identical to that described above for Example 2. […]
The cytokine levels in the culture supernatants from all treatment and control wells were determined by ELISA assay. […]

## O=c1c(O)c(-c2ccc(O)c(O)c2)oc2cc(O)cc(O)c12 [quercetin]
  concentration of potent activity (suppression of IL-13 and IFN-γ): 1 to 25 µM
